These results are taken from article PMC8643917, “982. Effect of Hepatic Impairment on the Safety and Pharmacokinetics of Rezafungin” (Open Forum Infectious Diseases, 2021).

The nature of data set [1]: Plasma pharmacokinetics of rezafungin after a single 400-mg IV 1-hour infusion, open-label single-dose study, non-compartmental analysis. Type of data set: in vivo, human. The conditions noted are these: for half-life: n = 8, plasma sampling through 336 hours postdose, non-compartmental analysis. An excerpt:
(§1) Abstract Background Rezafungin (RZF) is a novel echinocandin antifungal being developed for treatment of candidemia and invasive candidiasis, and for prevention of invasive fungal diseases among immunosuppressed patients. In the Phase 2 and Phase 3 treatment trials of rezafungin compared with caspofungin (STRIVE [NCT02734862] and ReSTORE [NCT03667690], respectively), patients with severe hepatic impairment (HI) were not included due to lack of caspofungin data in this population. Rezafungin was previously evaluated in patients with moderate hepatic impairment. Here we report an open-label, single-dose study on rezafungin in patients with HI (Child-Pugh class C). Methods To investigate the safety, tolerability, and pharmacokinetics (PK) of RZF in subjects with HI and healthy subjects (HS), 8 subjects with HI and 8 HS matched for age, sex, and body mass index (BMI) were enrolled and received a single 400-mg intravenous 1-hour infusion of RZF. Plasma PK sampling was performed at various time points through 336 hours postdose. RZF PK parameters were derived using non-compartmental analysis. Safety was assessed throughout the study. Results The majority of the HI subjects were White (87.5%) and male (75%) while equal distribution between White and Black or African American was observed among HS (50%) and 75% were male. The mean age of HI subjects was 58 years (range, 41–68 years) and 56.6 years (range, 50–61 years) for the HS. Mean BMI was 29.7 kg/m^2 (range, 24.5–34.3 kg/m^2) for HI subjects and 29.7 kg/m^2 (range, 25.4–34.2 kg/m^2) for the HS. […] Three HI subjects had one adverse event (AE) each (bronchitis, worsening hepatic encephalopathy, hyponatremia), all moderate in severity; one HS had 1 AE of infusion site infiltration mild in severity. […] Table 1. Plasma Rezafungin PK Parameter Estimates in Subjects with Severe Hepatic Impairment or Normal Hepatic Function After a Single 400 mg IV Infusion of Rezafungin Figure 1. […] These findings support no RZF dose adjustment in subjects with severe hepatic impairment. Disclosures Voon Ong, PhD, Cidara Therapeutics (Employee, Shareholder) Taylor Sandison, MD, MPH, Cidara Therapeutics (Employee, Shareholder) Rebeca M. Melara, M.S., Altasciences (contract research organization) (Employee) Thomas C. Marbury, MD, Orlando Clinical Research Center (Employee, Other Financial or Material Support, Equity owner of Orlando Clinical Research Center) Alena Jandourek, MD, Cidara therapeutics (Consultant) Shawn Flanagan, PhD, Cidara Therapeutics (Employee, Shareholder)

The nature of data set [2]: Safety and tolerability of a single 400-mg IV infusion of rezafungin in subjects with severe hepatic impairment and matched healthy subjects. Type of data set: in vivo, human.
Text: as §1

Setting [3] is: HI (Child-Pugh class C, n = 8) versus matched HS (n = 8), plasma, reduction.

Where two headings read alike, the source gives them in different places. *1 amine or outer side, *2 acyl side, *3 side chain or, on linkers, in order; H or OH if unused. Where a SMILES comes first, the peptide text is derived from it. Bridges are numbered along the chain shown (N, C = ends). [ ]: non-standard residue; d: D form. The star is where a group is joined. Orn(4R-OH,5R-OCH2CH2NMe3+) = C[N+](C)(C)CCO[C@@H](N[*:3])[C@H](O)C[C@H](N[*:1])C(=O)[*:2]; pTerphenylCO(4''-OnC5H11) = CCCCCOc1ccc(-c2ccc(-c3ccc(C(=O)*)cc3)cc2)cc1; hTyr(3S-OH,4S-OH) = N[C@H](C(=O)O)[C@H](O)[C@@H](O)c1ccc(O)cc1; Pro(3S-OH,4S-Me) = C[C@H]1CN[C@H](C(=O)O)[C@H]1O; Hyp = O=C(O)[C@@H]1C[C@@H](O)CN1

The half-life is how long it takes for the measured level to halve. Consider `CCCCCOc1ccc(-c2ccc(-c3ccc(C(=O)N[C@H]4C[C@@H](O)[C@@H](OCC[N+](C)(C)C)NC(=O)[C@@H]5[C@@H](O)[C@@H](C)CN5C(=O)[C@H]([C@@H](C)O)NC(=O)[C@H]([C@H](O)[C@@H](O)c5ccc(O)cc5)NC(=O)[C@@H]5C[C@@H](O)CN5C(=O)[C@H]([C@@H](C)O)NC4=O)cc3)cc2)cc1` [RZF, Rezafungin] ({pTerphenylCO(4''-OnC5H11)}-[Orn(4R-OH,5R-OCH2CH2NMe3+)]T[Hyp][hTyr(3S-OH,4S-OH)]T[Pro(3S-OH,4S-Me)]; lactam 1-C), for which the “RZF exposure (AUC) in subjects with HI, lower than that in HS” value in data set [1] (setting [3]) was ~ 30%. Moreover, in data set [1] (setting [3]), the “RZF exposure (Cmax) in subjects with HI, lower than that in HS” value is ~ 30%. Besides, the half-life in data set [1] (both sexes, human, subjects with severe hepatic impairment (HI, Child-Pugh class C), read-out: half-life (converted)) was 121 h; in data set [1] (healthy subjects (HS) matched for age, sex and BMI), 124 h. For the same molecule, the “adverse events considered related to RZF” value in data set [2] (HI and HS subjects, all AEs resolved or resolving by the end of the study) was “No AEs were considered related to RZF”. Also, in data set [2] (HI subjects (Child-Pugh class C)), the tolerability entry was “well tolerated”. The “number of subjects with an adverse event (AE)” value was “Three” in data set [2] (HI subjects (n = 8), one AE each (bronchitis, worsening hepatic encephalopathy, hyponatremia), all moderate in severity) and “one” in data set [2] (healthy subjects (n = 8), 1 AE of infusion site infiltration, mild in severity).
